Data on 17 substances can be found in EP4722363A1, “RNAI AGENT FOR INHIBITING ANGPTL3 EXPRESSION AND USE THEREOF” (YUN HO BIO CO., LTD, priority 2023, dated 2024).

Data set [1] relates to ANGPTL3 Protein. Nature of the data set: PCH free uptake, inhibition of ANGPTL3, ELISA of supernatant. The format is cell-based. Particulars: primary cynomolgus monkey hepatocytes, 72 hours. The method, then: PCH cells were resuscitated using 10% FBS InvitroGRO™ HT Medium, and subsequently, the cell density was adjusted to 3×10^5 cells/mL using 10% FBS InvitroGRO™ CP Medium. Then, 10 µL of the compound from the dilution plate was added to the cell culture plate, resulting in final compound concentrations of 25, 5, and 1 nM. The cells were seeded into a 96-well plate at a density of 27,000 cells per well (90 µL/well), with a final culture volume of 100 µL per well. The cells were cultured in a 5% CO2 incubator at 37 °C for 72 hours.
(§1) The supernatant from the PHH and PCH cultures from the previous steps was collected, transferred to a new 96-well V-bottom plate, and centrifuged. Human Angiopoietin-like 3 protein (hANGPTL3 protein; DANL30) ELISA test was performed according to the instructions of HANGPTL 3 protein Kit.
(§2) Data Analysis: Four Parameter Logistic method. This method constructs a standard curve by plotting, with the y-axis as the average absorbance of the standards and the x-axis as the concentration, drawing a best-fit curve through the points on the graph. The OD value of the log concentration of the sample's HANGPTL3 protein is determined against the best-fit line of the log concentration by regression analysis. [formula]
(§3) Sequences with good activity in Table 8 were evaluated for in vitro inhibitory activity against ANGPTL3 Protein in primary human hepatocytes (PHH) and primary cynomolgus monkey hepatocytes (PCH). Table 10. In Vitro Inhibitory Activity of MCPP-siRNAs against ANGPTL3 mRNA in PHH Cell Line
On the technique in general: ELISA stands for enzyme-linked immunosorbent assay.

In data set [2] the test system is ANGPTL3 Protein. Description: PHH free uptake, inhibition of ANGPTL3, ELISA of supernatant. Format: cell-based. Conditions: primary human hepatocytes, 72 hours. The method, then:
PHH cells were thawed and adjusted to a density of 6×10^5 cells/mL. Then, 10 µL of the compound from the dilution plate was added to the cell culture plate, resulting in final compound concentrations of 100, 40, 12.5, 5, and 2 nM. The cells were seeded into a 96-well plate at a density of 54,000 cells per well (90 µL/well), with a final culture volume of 100 µL per well. The cells were cultured in a 5% CO2 incubator at 37°C for 72 hours.
as §1, §2, §3

For “2002-033-001: GalNAc-conjugated modified ANGPTL3 siRNA, sense SEQ ID NO 38, antisense SEQ ID NO 12 (sense CAUAGUGAAGCAAUCUAAU; antisense AUUAGAUUGCUUCACUAUGGA; GalNAc conjugated, chemically modified, pattern not given here) [Duplex 2002-033-001]”, the “Average Inhibition in PCH %” value is recorded as 53.11% in the data set on ANGPTL3 Protein [1] (1nM), 67.45% in the data set on ANGPTL3 Protein [1] (5nM) and 68.80% in the data set with ANGPTL3 Protein [1] (25nM). In addition, in the data set on ANGPTL3 Protein [2], half-maximal inhibition (IC50) was put at 1.08 nM.

Regarding “ARO-05488-003-NAG37: GalNAc-conjugated comparator ANGPTL3 siRNA, sense SEQ ID NO 44, antisense SEQ ID NO 45 (sense GCUCAACAUAUUUGAUCAGUA; antisense UACUGAUCAAAUAUGUUGAGC; GalNAc (NAG37) conjugate, chemistry not fully specified) [reference compound]”, the results for the “Average Inhibition in PCH %” value in the data set with ANGPTL3 Protein [1] (1nM), with ANGPTL3 Protein [1] (5nM) and in the data set with ANGPTL3 Protein [1] (25nM) were 28.48%, 49.83% and 60.00%, respectively. In the data set on ANGPTL3 Protein [2], this substance showed an IC50 of 7.19 nM.

Take “2008-018-002: GalNAc-conjugated modified ANGPTL3 siRNA, sense SEQ ID NO 36, antisense SEQ ID NO 27 (sense GAGAAGAACUACAUAUAAA; antisense UUUAUAUGUAGUUCUUCUCAG; GalNAc conjugated, chemically modified, pattern not given here) [Duplex 2008-018-002]”: the midpoint of inhibition with ANGPTL3 Protein [2], the IC50, lay at 0.96 nM.

Regarding “2008-019-001: GalNAc-conjugated modified ANGPTL3 siRNA, sense SEQ ID NO 41, antisense SEQ ID NO 28 (sense GAGAAGAACUACAUAUAAA; antisense UUUAUAUGUAGUUCUUCUCAG; GalNAc conjugated, chemically modified, pattern not given here) [Duplex 2008-019-001]”, the entries for the “Average Inhibition in PCH %” value with ANGPTL3 Protein [1] (1nM), in the data set on ANGPTL3 Protein [1] (5nM) and in the data set on ANGPTL3 Protein [1] (25nM) were 58.78%, 73.01% and 75.51%, respectively. Also, the IC50 in the data set with ANGPTL3 Protein [2] came out at 1.61 nM.

As to “2008-010-002: GalNAc-conjugated modified ANGPTL3 siRNA, sense SEQ ID NO 35, antisense SEQ ID NO 27 (sense GAGAAGAACUACAUAUAAA; antisense UUUAUAUGUAGUUCUUCUCAG; GalNAc conjugated, chemically modified, pattern not given here) [Duplex 2008-010-002]”, in the data set on ANGPTL3 Protein [2], the IC50 was 0.98 nM.

Consider “2002-018-001: GalNAc-conjugated modified ANGPTL3 siRNA, sense SEQ ID NO 39, antisense SEQ ID NO 13 (sense CAUAGUGAAGCAAUCUAAU; antisense AUUAGAUUGCUUCACUAUGGA; GalNAc conjugated, chemically modified, pattern not given here) [Duplex 2002-018-001]”, for which, in the data set with ANGPTL3 Protein [2], the IC50 is 1.9 nM.

As to “2002-034-001: GalNAc-conjugated modified ANGPTL3 siRNA, sense SEQ ID NO 38, antisense SEQ ID NO 13 (sense CAUAGUGAAGCAAUCUAAU; antisense AUUAGAUUGCUUCACUAUGGA; GalNAc conjugated, chemically modified, pattern not given here) [Duplex 2002-034-001]”, the “Average Inhibition in PCH %” value is given as 50.50% with ANGPTL3 Protein [1] (1nM), 63.43% in the data set on ANGPTL3 Protein [1] (5nM) and 66.66% in the data set with ANGPTL3 Protein [1] (25nM). Also, in the data set on ANGPTL3 Protein [2], the IC50 worked out at 1.38 nM.

Turning to “2002-034-002: GalNAc-conjugated modified ANGPTL3 siRNA, sense SEQ ID NO 33, antisense SEQ ID NO 13 (sense CAUAGUGAAGCAAUCUAAU; antisense AUUAGAUUGCUUCACUAUGGA; GalNAc conjugated, chemically modified, pattern not given here) [Duplex 2002-034-002]”, the “Average Inhibition in PCH %” value with ANGPTL3 Protein [1] (1nM) was determined as 45.42%; in the data set with ANGPTL3 Protein [1] (5nM), 60.18%; in the data set with ANGPTL3 Protein [1] (25nM) it was 63.01%. The same substance returned an IC50 in the data set with ANGPTL3 Protein [2] of 1.3 nM.

Take “2008-019-002: GalNAc-conjugated modified ANGPTL3 siRNA, sense SEQ ID NO 36, antisense SEQ ID NO 28 (sense GAGAAGAACUACAUAUAAA; antisense UUUAUAUGUAGUUCUUCUCAG; GalNAc conjugated, chemically modified, pattern not given here) [Duplex 2008-019-002]”: the results for the “Average Inhibition in PCH %” value with ANGPTL3 Protein [1] (1nM), in the data set on ANGPTL3 Protein [1] (5nM) and in the data set on ANGPTL3 Protein [1] (25nM) were 52.37%, 70.28% and 73.74%, respectively. This substance showed an IC50 in the data set on ANGPTL3 Protein [2] of 1.11 nM.

Turning to “2002-018-002: GalNAc-conjugated modified ANGPTL3 siRNA, sense SEQ ID NO 34, antisense SEQ ID NO 13 (sense CAUAGUGAAGCAAUCUAAU; antisense AUUAGAUUGCUUCACUAUGGA; GalNAc conjugated, chemically modified, pattern not given here) [Duplex 2002-018-002]”, half-maximal inhibition in the data set with ANGPTL3 Protein [2] (IC50) was put at 0.96 nM.

As for “2008-018-001: GalNAc-conjugated modified ANGPTL3 siRNA, sense SEQ ID NO 41, antisense SEQ ID NO 27 (sense GAGAAGAACUACAUAUAAA; antisense UUUAUAUGUAGUUCUUCUCAG; GalNAc conjugated, chemically modified, pattern not given here) [Duplex 2008-018-001]”, the “Average Inhibition in PCH %” value in the data set on ANGPTL3 Protein [1] (1nM) is 59.56%; in the data set on ANGPTL3 Protein [1] (5nM), 73.29%; in the data set with ANGPTL3 Protein [1] (25nM) it was 76.55%. In addition, in the data set with ANGPTL3 Protein [2], half-maximal inhibition (IC50) was put at 2.34 nM.

For “2002-033-002: GalNAc-conjugated modified ANGPTL3 siRNA, sense SEQ ID NO 33, antisense SEQ ID NO 12 (sense CAUAGUGAAGCAAUCUAAU; antisense AUUAGAUUGCUUCACUAUGGA; GalNAc conjugated, chemically modified, pattern not given here) [Duplex 2002-033-002]”, in the data set with ANGPTL3 Protein [2], half-maximal inhibition (IC50) was put at 0.84 nM.

In the case of “2008-011-001: GalNAc-conjugated modified ANGPTL3 siRNA, sense SEQ ID NO 40, antisense SEQ ID NO 28 (sense GAGAAGAACUACAUAUAAA; antisense UUUAUAUGUAGUUCUUCUCAG; GalNAc conjugated, chemically modified, pattern not given here) [Duplex 2008-011-001]”, the “Average Inhibition in PCH %” value in the data set with ANGPTL3 Protein [1] (1nM) is 57.51%; with ANGPTL3 Protein [1] (5nM), 72.91%; in the data set with ANGPTL3 Protein [1] (25nM), 77.81%. Further, 2.6 nM corresponded to half-maximal inhibition in the data set on ANGPTL3 Protein [2] (IC50).

For “2008-035-001: GalNAc-conjugated modified ANGPTL3 siRNA, sense SEQ ID NO 42, antisense SEQ ID NO 28 (sense GAGAAGAACUACAUAUAAA; antisense UUUAUAUGUAGUUCUUCUCAG; GalNAc conjugated, chemically modified, pattern not given here) [Duplex 2008-035-001]”, the “Average Inhibition in PCH %” value in the data set with ANGPTL3 Protein [1] (1nM) came to 46.03%; in the data set with ANGPTL3 Protein [1] (5nM) it was 63.23%; with ANGPTL3 Protein [1] (25nM) it was 68.96%. The substance also registered an IC50 in the data set on ANGPTL3 Protein [2] of 2.34 nM.

As for “2008-035-002: GalNAc-conjugated modified ANGPTL3 siRNA, sense SEQ ID NO 37, antisense SEQ ID NO 28 (sense GAGAAGAACUACAUAUAAA; antisense UUUAUAUGUAGUUCUUCUCAG; GalNAc conjugated, chemically modified, pattern not given here) [Duplex 2008-035-002]”, the IC50 in the data set on ANGPTL3 Protein [2] is 2.23 nM.

Regarding “2008-011-002: GalNAc-conjugated modified ANGPTL3 siRNA, sense SEQ ID NO 35, antisense SEQ ID NO 28 (sense GAGAAGAACUACAUAUAAA; antisense UUUAUAUGUAGUUCUUCUCAG; GalNAc conjugated, chemically modified, pattern not given here) [Duplex 2008-011-002]”, the “Average Inhibition in PCH %” value came out at 54.65% in the data set with ANGPTL3 Protein [1] (1nM), 71.25% in the data set with ANGPTL3 Protein [1] (5nM) and 76.57% with ANGPTL3 Protein [1] (25nM). The same substance registered an IC50 in the data set with ANGPTL3 Protein [2] of 0.75 nM.

On to “2002-050-L96: L96-conjugated comparator siRNA, sense SEQ ID NO 43, antisense SEQ ID NO 18 (sense CAUAGUGAAGCAAUCUAAU; antisense AUUAGAUUGCUUCACUAUGGA; L96 GalNAc conjugate, position not given here, modification pattern not given here) [Duplex 2002-050-L96, reference compound]”, for which, in the data set on ANGPTL3 Protein [2], the IC50 worked out at 2.6 nM.

A word on the IC50: it is the midpoint of a concentration-inhibition curve.
